“And” between values parts separate entries of the source, which are not always exact repeats. Equal values may be shown once. Toxic doses and inconclusive results are not listed.
Test system: P388 leukemia ip, CD2F1 mice, survival T/C
Test: NCI In Vivo Anticancer Drug Screen. Data for tumor model P388 Leukemia (intraperitoneal) in CD2F1 (CDF1) mice
Details: endpoint: median survival time, higher = longer survival
Procedure, shortened: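 Mice carrying the transplanted tumor received test compound or vehicle. Survival was recorded in each group, and the value is the treated-group measurement divided by that of the vehicle-treated control group.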

[1] = dose: 6.25 mg/kg/injection, schedule: Q01DX005 (ip), vehicle: Klucel (hydroxypropylcellulose) (HPC)
[2] = dose: 12.5 mg/kg/injection, schedule: Q01DX005 (ip), vehicle: Klucel (hydroxypropylcellulose) (HPC)
[3] = dose: 25.0 mg/kg/injection, schedule: Q01DX005 (ip), vehicle: Klucel (hydroxypropylcellulose) (HPC)
[4] = dose: 50.0 mg/kg/injection, schedule: Q01DX005 (ip), vehicle: Klucel (hydroxypropylcellulose) (HPC)
[5] = dose: 100.0 mg/kg/injection, schedule: Q01DX005 (ip), vehicle: Klucel (hydroxypropylcellulose) (HPC)
[6] = dose: 200.0 mg/kg/injection, schedule: Q01DX005 (ip), vehicle: Klucel (hydroxypropylcellulose) (HPC)
[7] = dose: 50.0 mg/kg/injection, schedule: Q01DX009 (ip), vehicle: saline with Tween-80
[8] = dose: 100.0 mg/kg/injection, schedule: Q01DX009 (ip), vehicle: saline with Tween-80
[9] = dose: 200.0 mg/kg/injection, schedule: Q01DX009 (ip), vehicle: saline with Tween-80
[10] = dose: 50.0 mg/kg/injection, schedule: Q01DX009 (ip), vehicle: saline
[11] = dose: 100.0 mg/kg/injection, schedule: Q01DX009 (ip), vehicle: saline
[12] = dose: 200.0 mg/kg/injection, schedule: Q01DX009 (ip), vehicle: saline
[13] = dose: 12.5 mg/kg/injection, schedule: Q01DX009 (ip), vehicle: Klucel (hydroxypropylcellulose) (HPC)
[14] = dose: 25.0 mg/kg/injection, schedule: Q01DX009 (ip), vehicle: Klucel (hydroxypropylcellulose) (HPC)
[15] = dose: 50.0 mg/kg/injection, schedule: Q01DX009 (ip), vehicle: Klucel (hydroxypropylcellulose) (HPC)
[16] = dose: 100.0 mg/kg/injection, schedule: Q01DX009 (ip), vehicle: Klucel (hydroxypropylcellulose) (HPC)

## Nc1ncc(NCCCNc2ccc(C(=O)NC(CCC(=O)O)C(=O)O)cc2)c(=O)[nH]1 (stereo unspecified)
[1]
  T/C: 100 % of control and 102 % of control
[2]
  T/C: 100 % of control and 102 % of control
[3]
  T/C: 99 % of control and 104 % of control
[4]
  T/C: 102 % of control and 98 % of control
[5]
  T/C: 99 % of control and 103 % of control
[6]
  T/C: 100 % of control and 102 % of control

## C/C=C(/C)c1cccc(OCc2ccccc2)c1OCc1ccccc1
[7]
  T/C: 95 % of control
[8]
  T/C: 90 % of control
[9]
  T/C: 106 % of control

## CC(=O)c1ccc(OCc2ccccc2)cc1OCc1ccccc1
[10]
  T/C: 97 % of control
[11]
  T/C: 100 % of control
[12]
  T/C: 98 % of control

## CNC(=O)C1CCCN1C(=O)C(Cl)Cl (stereo unspecified)
[10]
  T/C: 96 % of control
[11]
  T/C: 93 % of control and 96 % of control
[12]
  T/C: 86 % of control and 92 % of control

## Cc1cc(OP2(=O)Nc3cccc4cccc(c34)N2)ccc1Cl
dose: 50.0 mg/kg/injection, schedule: Q01DX005 (ip), vehicle: saline with Tween-80
  T/C: 89 % of control
dose: 100.0 mg/kg/injection, schedule: Q01DX005 (ip), vehicle: saline with Tween-80
  T/C: 89 % of control

## C=CC(C)(C)n1cc(C2=C(O)C(=O)C(c3cn(C(C)(C)C=C)c4ccccc34)=C(O)C2=O)c2ccccc21
dose: 2.5 mg/kg/injection, schedule: Q01DX009 (ip), vehicle: carboxymethylcellulose (CMC)
  T/C: 101 % of control
dose: 5.0 mg/kg/injection, schedule: Q01DX009 (ip), vehicle: carboxymethylcellulose (CMC)
  T/C: 103 % of control and 88 % of control
dose: 6.25 mg/kg/injection, schedule: Q01DX009 (ip), vehicle: Klucel (hydroxypropylcellulose) (HPC)
  T/C: 99 % of control
dose: 10.0 mg/kg/injection, schedule: Q01DX009 (ip), vehicle: carboxymethylcellulose (CMC)
  T/C: 108 % of control and 93 % of control
[13]
  T/C: 100 % of control
dose: 18.0 mg/kg/injection, schedule: Q01DX009 (ip), vehicle: Klucel (hydroxypropylcellulose) (HPC)
  T/C: 95 % of control
dose: 20.0 mg/kg/injection, schedule: Q01DX009 (ip), vehicle: carboxymethylcellulose (CMC)
  T/C: 120 % of control and 90 % of control
[14]
  T/C: 99 % of control
dose: 26.0 mg/kg/injection, schedule: Q01DX009 (ip), vehicle: Klucel (hydroxypropylcellulose) (HPC)
  T/C: 104 % of control
dose: 40.0 mg/kg/injection, schedule: Q01DX009 (ip), vehicle: Klucel (hydroxypropylcellulose) (HPC)
  T/C: 90 % of control
dose: 40.0 mg/kg/injection, schedule: Q01DX009 (ip), vehicle: carboxymethylcellulose (CMC)
  T/C: 114 % of control
[15]
  T/C: 100 % of control
[16]
  T/C: 113 % of control

## Cc1oc2c(C)c3oc(=O)cc(C)c3cc2c1CN1C(=O)c2ccccc2C1=O
dose: 100.0 mg/kg/injection, schedule: Q05DX002 (ip), vehicle: saline with Tween-80
  T/C: 99 % of control
dose: 200.0 mg/kg/injection, schedule: Q05DX002 (ip), vehicle: saline with Tween-80
  T/C: 92 % of control
dose: 400.0 mg/kg/injection, schedule: Q05DX002 (ip), vehicle: saline with Tween-80
  T/C: 98 % of control

## CC(=O)OC1OC(CS[As](C)C)C(OC(C)=O)C(OC(C)=O)C1OC(C)=O (stereo unspecified)
[10]
  T/C: 104 % of control
[11]
  T/C: 106 % of control
[12]
  T/C: 104 % of control

## CC1(C)CN2C(c3ccccc3)=NN(c3ccccc3)C2(C)C1 (stereo unspecified)
dose: 100.0 mg/kg/injection, schedule: Q01DX001 (ip), vehicle: saline with Tween-80
  T/C: 98 % of control
dose: 200.0 mg/kg/injection, schedule: Q01DX001 (ip), vehicle: saline with Tween-80
  T/C: 99 % of control
dose: 400.0 mg/kg/injection, schedule: Q01DX001 (ip), vehicle: saline with Tween-80
  T/C: 100 % of control

## O=C(CSc1nc(-c2ccccc2)c(-c2ccccc2)o1)N1CCOCC1
[13]
  T/C: 105 % of control
[14]
  T/C: 105 % of control
[15]
  T/C: 106 % of control and 110 % of control
[16]
  T/C: 107 % of control and 120 % of control
dose: 200.0 mg/kg/injection, schedule: Q01DX009 (ip), vehicle: Klucel (hydroxypropylcellulose) (HPC)
  T/C: 110 % of control

## O=C(O)c1cc(-c2ccncc2)nc2ccccc12
[4]
  T/C: 99 % of control
[5]
  T/C: 96 % of control
[6]
  T/C: 97 % of control

## COc1cccc2c1C(=O)c1c(O)c3c(c(O)c1C2=O)CC(O)(/C(C)=N/NC(=O)C(=O)N/N=C(\C)C1(O)Cc2c(O)c4c(c(O)c2C(OC2CC(N)C(O)C(C)O2)C1)C(=O)c1c(OC)cccc1C4=O)CC3OC1CC(N)C(O)C(C)O1 (stereo unspecified)
dose: 1.56 mg/kg/injection, schedule: Q01DX009 (ip), vehicle: water
  T/C: 163 % of control and 166 % of control
dose: 3.13 mg/kg/injection, schedule: Q01DX009 (ip), vehicle: water
  T/C: 180 % of control and 182 % of control
dose: 6.25 mg/kg/injection, schedule: Q01DX009 (ip), vehicle: water
  T/C: 184 % of control and 219 % of control
dose: 12.5 mg/kg/injection, schedule: Q01DX009 (ip), vehicle: water
  T/C: 88 % of control and 94 % of control

## COCCOC(=O)c1c(Cl)c(Cl)c(Cl)c(Cl)c1C(=O)O
[7]
  T/C: 96 % of control
[8]
  T/C: 96 % of control
[9]
  T/C: 101 % of control

## C=C1C(=O)O[C@@H]2/C=C(/C)[C@@H](OC(C)=O)C/C=C(\C)C(O)[C@@H](OC(=O)/C(C)=C\C)C12 (stereo partly specified)
dose: 25.0 mg/kg/injection, schedule: Q04DX002 (ip), vehicle: saline with Tween-80
  T/C: 105 % of control
dose: 50.0 mg/kg/injection, schedule: Q04DX002 (ip), vehicle: saline with Tween-80
  T/C: 105 % of control
dose: 100.0 mg/kg/injection, schedule: Q04DX002 (ip), vehicle: saline with Tween-80
  T/C: 104 % of control
dose: 200.0 mg/kg/injection, schedule: Q04DX002 (ip), vehicle: saline with Tween-80
  T/C: 97 % of control

## CC(C)OC(=O)C(C)(C)Oc1ccc(C(=O)c2ccc(Cl)cc2)cc1
[7]
  T/C: 111 % of control
[8]
  T/C: 98 % of control
[9]
  T/C: 97 % of control

## CC(/C=C/C1OC(=O)C=CC1C)=C\C(C)C/C=C/C(C)=C/C(CO)C(=O)C(C)C(O)C(C)C/C(C)=C/C(=O)O (stereo unspecified)
dose: 25.0 micrograms/kg/injection, schedule: Q01DX005 (ip), vehicle: other
  T/C: 119 % of control
dose: 100.0 micrograms/kg/injection, schedule: Q01DX005 (ip), vehicle: other
  T/C: 153 % of control

## CC(=O)On1nnc2ccccc2c1=O
dose: 6.25 mg/kg/injection, schedule: Q01DX009 (ip), vehicle: distilled water + Tween-80
  T/C: 97 % of control
dose: 12.5 mg/kg/injection, schedule: Q01DX009 (ip), vehicle: distilled water + Tween-80
  T/C: 100 % of control
dose: 25.0 mg/kg/injection, schedule: Q01DX009 (ip), vehicle: distilled water + Tween-80
  T/C: 97 % of control

## CC(=O)NS(=O)(=O)c1ccc(N)cc1
dose: 100.0 mg/kg/injection, schedule: Q01DX009 (ip), vehicle: saline sonified
  T/C: 109 % of control
dose: 132.0 mg/kg/injection, schedule: Q01DX009 (ip), vehicle: saline with Tween-80
  T/C: 104 % of control
[9]
  T/C: 104 % of control
dose: 300.0 mg/kg/injection, schedule: Q01DX009 (ip), vehicle: saline with Tween-80
  T/C: 113 % of control
dose: 400.0 mg/kg/injection, schedule: Q01DX009 (ip), vehicle: saline sonified
  T/C: 104 % of control

## C=C(C)[C@@H]1CC[C@]2(C(=O)O)CC[C@@]3(C)[C@]4(C)CC[C@@H]5[C@](C)(CC[C@@H](O)[C@@]5(C)C(=O)O)[C@H]4CC[C@]3(C)[C@@H]12
dose: 15.0 mg/kg/injection, schedule: Q01DX005 (ip), vehicle: Klucel (hydroxypropylcellulose) (HPC)
  T/C: 104 % of control
dose: 30.0 mg/kg/injection, schedule: Q01DX005 (ip), vehicle: Klucel (hydroxypropylcellulose) (HPC)
  T/C: 117 % of control
dose: 60.0 mg/kg/injection, schedule: Q01DX005 (ip), vehicle: Klucel (hydroxypropylcellulose) (HPC)
  T/C: 117 % of control

## C=C(C)C(=NC(C)C)Nc1ccccc1
[1]
  T/C: 103 % of control and 104 % of control
[2]
  T/C: 107 % of control and 123 % of control and 96 % of control
[3]
  T/C: 99 % of control and 104 % of control and 106 % of control

## O=C(O)c1c[nH]c2cc(O)ccc2c1=O
dose: 12.5 mg/kg/injection, schedule: Q01DX009 (ip), vehicle: saline with Tween-80
  T/C: 98 % of control
dose: 25.0 mg/kg/injection, schedule: Q01DX009 (ip), vehicle: saline with Tween-80
  T/C: 96 % of control
[7]
  T/C: 103 % of control
[10]
  T/C: 103 % of control
[11]
  T/C: 101 % of control
[12]
  T/C: 95 % of control

## S=c1oc2cccc3c2n1CCC3
dose: 100.0 mg/kg/injection, schedule: Q04DX003 (ip), vehicle: saline with Tween-80
  T/C: 95 % of control
dose: 200.0 mg/kg/injection, schedule: Q04DX003 (ip), vehicle: saline with Tween-80
  T/C: 104 % of control
dose: 400.0 mg/kg/injection, schedule: Q04DX003 (ip), vehicle: saline with Tween-80
  T/C: 100 % of control
